Data from patent US9034859B2, “Sulfated oxysterol and oxysterol sulfation by hydroxysterol sulfotransferase promote lipid homeostasis and liver proliferation” (Virginia Commonwealth University, priority 2011, dated 2015).

Experiments:
LXR signaling pathway = experiment: Western blot of LXR and its target genes and PCNA in mouse liver (Example 3); assay type: in vivo, C57BL/6 mice; conditions: 5 mg/kg i.v.
Method: Cayman Chemical, Ann Arbor, Mich.); […] […] Metabolism. (Accepted)]. […] Cell lysates were prepared from frozen mouse liver tissues. Total proteins, 100 μg, were separated by 10% SDS-PAGE, and transferred to PVDF membrane (Millipore, Eschbom, Germany). […] Louis, Mo.) was used as a loading control. The immunoreactive bands were detected by Fujifilm Medical System (Fujifilm, Stamford, Conn.) and quantified by Advanced Image Data Analyzer (Aida Inc., Straubenhardt, Germany).

[1] = tested on: primary rat hepatocytes (PRH); experiment: Western blot in primary rat hepatocytes (Example 4); assay type: cell-based; conditions: Ad-Control-infected group, T0901317 1.5 μM or 25HC 3 μM
Method: PRH were prepared as previously described (24). Briefly, parenchymal cells (3.5×10^6) were inoculated in 60-mm plastic Petri dishes coated with rat tail collagen. The plates contained 3 ml of Williams E culture media supplemented with thyroxine (1 μM), dexamethasone (0.1 μM), and penicillin (100 units/ml). Three hours after plating, culture medium was removed and fresh medium was added. Cells were then infected with Ad-SULT2B1b at a multiplicity (MOI) of 10 plaque forming units/cell (pfu/cell) or 100 nM of siRNA-SULT2B1b (ON-TARGET plus siRNA of rat SULT2B1b, Thermo Scientific Dharmacon, Lafayette, Colo.) as previously described (31). The Ad-Control and siRNA-Control (ON-TARGET plus negative control siRNA) were used as controls, respectively. Twenty four hours after infection, cells were treated with T0901317 (1.5 μM) or 25HC (3 μM) for another 24 hours. The cells were harvested at the timepoints as indicated in the text.
Cell lysates were prepared from frozen mouse liver tissues or PRH, and 50 μg of the total proteins were separated by 10% SDS-PAGE, transferred to polyvinylidene difluoride membrane (Millipore, Eschbom, Germany). Specific protein was probed with specific antibodies against PCNA, human SULT2B1b (Santa Cruz Biotechnology, Santa Cruz, Calif.), LXRα (Abcam, Cambridge, Mass.), ATP-binding cassette transporters 1 (ABCA1) (Abcam, Cambridge, Mass.), and SREBP1 (Santa Cruz Biotechnology, Santa Cruz, Calif.). β-Actin (Sigma-Aldrich, St. Louis, Mo.) was used as a loading control. Western analysis was performed by methods known in the art.

In the case of `O=S(=O)(c1ccccc1)N(CC(F)(F)F)c1ccc(C(O)(C(F)(F)F)C(F)(F)F)cc1` [T0901317, reference compound], the “25HC3S-induced PCNA expression” value (LXR signaling pathway; day 2) is reported as “significantly repressed”, the “expressions of LXR target genes ABCA1 and SREBP-1c” value (LXR signaling pathway; day 2, presence and absence of 25HC3S, vs vehicle) is reported as “induced” and the “LXR response gene expressions” value [1] is reported as “significantly increased”. For the same compound, the PCNA expression [1] was “decreased”.
